# Patent US11724992B2 (Novartis AG, priority 2017, dated 2023)
# Read-outs that look alike come from different tables or passages of the source.
# Test system: IL-1β production in PMA-differentiated THP-1 cells
# Test: IL-1β production in PMA-differentiated THP-1 cells stimulated with gramicidin (hTHP-1 assay, 2% fetal bovine serum; Procedures 1-3)
# Type: cell-based, human
# Details: class symbols, read-out: hTHP-1 IC50 (Average IC50 of compounds in hTHP-1 assay)
# Method: The following protocol is suitable for testing the activity of the compounds disclosed herein.
# Procedure 1: IL-1β Production in PMA-Differentiated THP-1 Cells Stimulated with Gramicidin
# THP-1 cells were purchased from the American Type Culture Collection and sub-cultured according to instructions from the supplier. Cells were cultured in complete RPMI 1640 (containing 10% heat inactivated FBS, penicillin (100 units/ml) and streptomycin (100 μg/ml)), and maintained in log phase prior to experimental setup. Prior to the experiment, compounds were dissolved in dimethyl sulfoxide (DMSO) to generate a 30 mM stock. The compound stock was first pre-diluted in DMSO to 3, 0.34, 0.042 and 0.0083 mM intermediate concentrations and subsequently spotted using Echo550 liquid handler into an empty 384-well assay plate to achieve desired final concentration (e.g. 100, 33, 11, 3.7, 1.2, 0.41, 0.14, 0.046, 0.015, 0.0051, 0.0017 μM). DMSO was backfilled in the plate to achieve a final DMSO assay concentration of 0.37%. The plate was then sealed and stored at room temperature until required.
# THP-1 cells were treated with PMA (Phorbol 12-myristate 13-acetate) (20 ng/ml) for 16-18 hours. On the day of the experiment the media was removed and adherent cells were detached with trypsin for 5 minutes. Cells were then harvested, washed with complete RPMI 1640, spun down, and resuspended in RPMI 1640 (containing 2% heat inactivated FBS, penicillin (100 units/ml) and streptomycin (100 μg/ml). The cells were plated in the 384-well assay plate containing the spotted compounds at a density of 50,000 cells/well (final assay volume 50 μl). Cells were incubated with compounds for 1 hour and then stimulated with gramicidin (5 μM) (Enzo) for 2 hours. Plates were then centrifuged at 340 g for 5 min. Cell free supernatant (40 μL) was collected using a 96-channel PlateMaster (Gilson) and the production of IL-1β was evaluated by HTRF (cisbio). The plates were incubated for 18 h at 4° C. and read using the preset HTRF program (donor emission at 620 nm, acceptor emission at 668 nm) of the SpectraMax i3x spectrophotometer (Molecular Devices, software SoftMax 6). A vehicle only control and a dose titration of CRID3 (100-0.0017 μM) were run concurrently with each experiment.
# Procedure 2: IL-1β Production in PMA-Differentiated THP-1 Cells Stimulated with Gramicidin
# THP-1 cells were purchased from the American Type Culture Collection and sub-cultured according to instructions from the supplier. Prior to experiments, cells were cultured in complete RPMI 1640 (containing 10% heat inactivated FBS, penicillin (100 units/ml) and streptomycin (100 μg/ml)), and maintained in log phase prior to experimental setup. Prior to the experiment THP-1 were treated with PMA (Phorbol 12-myristate 13-acetate) (20 ng/ml) for 16-18 hours. Compounds were dissolved in dimethyl sulfoxide (DMSO) to generate a 30 mM stock. On the day of the experiment the media was removed and adherent cells were detached with trypsin for 5 minutes. Cells were then harvested, washed with complete RPMI 1640, spun down, resuspended in RPMI 1640 (containing 2% heat inactivated FBS, penicillin (100 units/ml) and streptomycin (100 μg/ml). The cells were plated in a 384-well plate at a density of 50,000 cells/well (final assay volume 50 μl). Compounds were first dissolved in assay medium to obtain a 5× top concentration of 500 μM. 10 step dilutions (1:3) were then undertaken in assay medium containing 1.67% DMSO. 5× compound solutions were added to the culture medium to achieve desired final concentration (e.g. 100, 33, 11, 3.7, 1.2, 0.41, 0.14, 0.046, 0.015, 0.0051, […]). Final DMSO concentration was at 0.37%. Cells were incubated with compounds for 1 hour and then stimulated with gramicidin (5 μM) (Enzo) for 2 hours. Plates were then centrifuged at 340 g for 5 min. Cell free supernatant (40 μL) was collected using a 96-channel PlateMaster (Gilson) and the production of IL-1β was evaluated by HTRF (cisbio). […]
# [1] = Homo sapiens, THP-1, hTHP-1 assay containing 2% fetal bovine serum
# [2] = hTHP-1 assay containing 2% fetal bovine serum
IC50 [1] [nM],IC50 [2] [nM],SMILES
200 to 1000,–,"CC(C)(O)c1cc(F)cc(S(N)(=O)=NC(=O)Nc2c3c(c(F)c4c2CCC4)CCC3)c1 (centres unmarked) [Example 56, 3-fluoro-N′-((8-fluoro-1,2,3,5,6,7-hexahydro-s-indacen-4-yl)carbamoyl)-5-(2-hydroxypropan-2-yl)benzenesulfonimidamide]"
–,1000 to 5000,"CC(C)c1cc(F)cc(C(C)C)c1NC(=O)N=S(N)(=O)c1cc(C(C)(C)O)cs1 (single isomer, unassigned) [Example 141]"
–,5000 to 30000,"CN(C)Cc1cccc(S(N)(=O)=NC(=O)Nc2c3c(cc4c2CCC4)CCC3)c1 (single isomer, unassigned) [Example 161]"
–,1000 to 5000,"CC(C)(O)c1csc(S(N)(=O)=NC(=O)Nc2c3c(cc4c2OCC4)CCC3)n1 (single isomer, unassigned) [Example 353, (S) or (R)-4-(2-hydroxypropan-2-yl)-N′-((3,5,6,7-tetrahydro-2H-indeno[5,6-b]furan-8-yl)carbamoyl)thiazole-2-sulfonimidamide]"
–,200 to 1000,"CN(C)Cc1cccc(S(N)(=O)=NC(=O)Nc2c3c(cc4c2CCC4)CCC3)c1 (single isomer, unassigned) [Example 160]"
–,1000 to 5000,"Cc1nc(C(C)(C)O)sc1S(N)(=O)=NC(=O)Nc1c2c(c(F)c3c1CCC3)CCC2 (single isomer, unassigned) [Example 177]"
1000 to 5000,–,"CC(C)(O)c1ccc(S(N)(=O)=NC(=O)Nc2c3c(c(F)c4c2CCC4)CCC3)c(Cl)c1 (centres unmarked) [Example 50, 2-chloro-N′-(8-fluoro-1,2,3,5,6,7-hexahydro-s-indacen-4-ylcarbamoyl)-4-(2-hydroxypropan-2-yl)benzenesulfonimidamide]"
40 to 200,–,"COC(C)(C)c1ncc(S(N)(=O)=NC(=O)Nc2c3c(cc4c2CCC4)CCC3)s1 (centres unmarked) [Example 295, N′-((1,2,3,5,6,7-hexahydro-s-indacen-4-yl)carbamoyl)-2-(2-methoxypropan-2-yl)thiazole-5-sulfonimidamide]"
–,200 to 1000,"CC(C)(O)c1cc(F)c(S(N)(=O)=NC(=O)Nc2c3c(c(F)c4c2CCC4)CCC3)s1 (single isomer, unassigned) [Example 122]"
–,40 to 200,"CC(C)c1cc(C#N)c(F)c(C(C)C)c1NC(=O)N=S(N)(=O)c1cnc(C(C)(C)O)s1 (single isomer, unassigned) [Example 91]"
–,1000 to 5000,"CC(C)c1cc(C#N)cc(C(C)C)c1NC(=O)N=S(N)(=O)c1ncc(C(C)(C)O)s1 (single isomer, unassigned) [Example 131]"
–,40 to 200,"CC(C)c1cc(OC(F)F)cc(C(C)C)c1NC(=O)N=S(N)(=O)c1cnc(C(C)(C)O)s1 (single isomer, unassigned) [Example 111]"
–,< 8,"Cc1oc(S(N)(=O)=NC(=O)Nc2c3c(c(F)c4c2CCC4)CCC3)cc1C(C)(C)O (single isomer, unassigned) [Example 148]"
–,40 to 200,"CC(C)(O)c1cnc(S(N)(=O)=NC(=O)Nc2c3c(c(Br)c4c2CCC4)CCC3)s1 (single isomer, unassigned) [Example 352, (R) or (S)-N′-((8-bromo-1,2,3,5,6,7-hexahydro-s-indacen-4-yl)carbamoyl)-5-(2-hydroxypropan-2-yl)thiazole-2-sulfonimidamide]"
–,40 to 200,"CC(c1ccc(S(N)(=O)=NC(=O)Nc2c3c(cc4c2CCC4)CCC3)cc1)N(C)C (single isomer, unassigned) [Example 377, (R,R) or (R,S) or (S,S) or (S,R)-4-(1-(dimethylamino)ethyl)-N′-((1,2,3,5,6,7-hexahydro-s-indacen-4-yl)carbamoyl)benzenesulfonimidamide]"
–,5000 to 30000,"CNCc1ccc(S(N)(=O)=NC(=O)Nc2c3c(cc4c2CCC4)CCC3)cc1 (single isomer, unassigned) [Example 315, (R) or (S)-N′-((1,2,3,5,6,7-hexahydro-s-indacen-4-yl)carbamoyl)-4-((methylamino)methyl)benzenesulfonimidamide]"
–,1000 to 5000,"CC(C)(O)c1ccc(S(N)(=O)=NC(=O)Nc2c3c(cc4c2CCC4)CCC3)c(F)c1 (single isomer, unassigned) [Example 88]"
8 to 40,–,"CC(C)(O)c1ncc(S(N)(=O)=NC(=O)Nc2c3c(cc4c2CC4)CCC3)s1 (centres unmarked) [Example 223, 2-(2-Hydroxypropan-2-yl)-N′-((2,4,5,6-tetrahydro-1H-cyclobuta[f]inden-3-yl)carbamoyl)thiazole-5-sulfonimidamide]"
–,200 to 1000,"Cc1oc(S(N)(=O)=NC(=O)Nc2c3c(c(F)c4c2CCC4)CCC3)cc1C(C)(C)O (single isomer, unassigned) [Example 149]"
–,1000 to 5000,"CC(C)c1cc(F)cc(C(C)C)c1NC(=O)N=S(N)(=O)c1ncc(C(C)(C)O)s1 (single isomer, unassigned) [Example 138]"
–,8 to 40,"Cc1oc(S(N)(=O)=NC(=O)Nc2c3c(cc4c2C(C)CC4)CCC3)cc1C(C)(C)O (single isomer, unassigned) [Example 303, (R,S) or (R,R) or (S,R) or (S,S)-4-(2-hydroxypropan-2-yl)-5-methyl-N′-((3-methyl-1,2,3,5,6,7-hexahydro-s-indacen-4-yl)carbamoyl)furan-2-sulfonimidamide resolved from example 127]"
–,5000 to 30000,"CC(C)(O)c1ccc(S(N)(=O)=NC(=O)Nc2c3c(cc4c2CCC4)CCC3)cc1F (single isomer, unassigned) [Example 178]"
–,5000 to 30000,"CC1CCc2cc3c(c(NC(=O)N=S(N)(=O)c4cnc(C(C)(C)O)s4)c21)CCC3 (single isomer, unassigned) [Example 331, (S,S) or (S,R)-2-(2-hydroxypropan-2-yl)-N′-((3-methyl-1,2,3,5,6,7-hexahydro-s-indacen-4-yl)carbamoyl)thiazole-5-sulfonimidamide]"
–,200 to 1000,"CC(C)c1cc(C#N)c(F)c(C(C)C)c1NC(=O)N=S(N)(=O)c1cnc(C(C)(O)CO)s1 (single isomer, unassigned) [Example 316, Two isomers of (R,R) or (R,S) or (S,S) or (S,R)-N′-((4-cyano-3-fluoro-2,6-diisopropylphenyl)carbamoyl)-2-(1,2-dihydroxypropan-2-yl)thiazole-5-sulfonimidamide]"
1000 to 5000,–,"CC(C)(O)c1cc(S(N)(=O)=NC(=O)Nc2c3c(c(F)c4c2CCC4)CCC3)ccc1F (centres unmarked) [Example 58, 4-fluoro-N′-((8-fluoro-1,2,3,5,6,7-hexahydro-s-indacen-4-yl)carbamoyl)-3-(2-hydroxypropan-2-yl)benzenesulfonimidamide]"
–,8 to 40,"CC(C)(O)c1cc(F)c(S(N)(=O)=NC(=O)Nc2c3c(c(F)c4c2CCC4)CCC3)s1 (single isomer, unassigned) [Example 121]"
–,40 to 200,"CC1CCc2c1cc1c(c2NC(=O)N=S(N)(=O)c2cnc(C(C)(C)O)s2)CCC1 (centres unmarked) [Example 291, 2-(2-Hydroxypropan-2-yl)-N′-((1-methyl-1,2,3,5,6,7-hexahydro-s-indacen-4-yl)carbamoyl)thiazole-5-sulfonimidamide]"
–,40 to 200,"CC(C)c1cc(F)cc(C(C)C)c1NC(=O)N=S(N)(=O)c1cnc(C(C)(C)O)s1 (single isomer, unassigned) [Example 103]"
–,1000 to 5000,"CC(C)c1cc(C#N)c(F)c(C(C)C)c1NC(=O)N=S(N)(=O)c1sc(C(C)(C)O)nc1CO (single isomer, unassigned) [Example 194]"
